Assay [1] has as its system SDH-KO-HRAS cells (SDHB-deficient). Nature of the assay: Cellular / differential toxicity assay (CellTiter-Glo, 3 days). It counts as cell-based, murine. The conditions noted are these: Mus musculus, 72 h, toxicity, SDH-KO cells, 3 days, CellTiter-Glo; read-out: EC50 (uM) SDH-KO-HTAS-C17. Here is the method:
(§1) Identification of compounds that target specifically SDH-deficient cells was done by screening a library of small-molecule by using a differential toxicity screen with SDHB-proficient vs. SDHB-deficient cells (the […] cells were described in Cardaci 2015).
(§2) Cells Used for the Differential Assays: SDH-WT; SDH-KO-HRAS
(§3) Cell Culture Conditions: • Medium: DMEM-F12 medium+1 mM Glutamine+3% FBS • Plates: 96 well plate—Black, clear flat bottom • Incubation time: 3 days • Compound concentration: 10 point dilution starting from 10 uM to 0.0065 uM or a lower range when needed. • Viability assay at the end of incubation: Celltiter-Glo (CTG) from Promega.
(§4) Protocol: • Day 1: Plate cells in 96 well plate together with the appropriate concentration of compound.
(§5) Incubate for 3 days at 37° C. in 5% CO2 tissue culture incubator. • Day 4: Check viability of cells by adding CTG reagent and read luminescence in plate reader
(§6) SDH-WT and SDH-KO cells were grown in DMEM F12 supplemented with 1 mM Glutamine+3% FBS were treated with different concentrations of the indicated compounds in FIG. 11. Cell viability was determined 72 hours later by CellTiter Glue reagent (Promega), the luminescence was measured with ClarioStar reader (BMG) and the EC50s were calculated by Prism.
(§7) SDH-WT and SDH-KO cells were grown in DMEM F12 supplemented with 1 mM Glutamine+3% FBS were treated with different concentrations of the indicated compounds. Cell viability was determined 72 hours later by CellTiter Glue reagent (Promega), the luminescence was measured with ClarioStar reader (BMG) and the EC50s were calculated by Prism.
(§8) The cells were grown in DMEM F12 supplemented with 1 mM Glutamine+3% FBS were treated with different concentrations of the indicated compounds. Cell viability was determined 72 hours later by CellTiter Glue reagent (Promega), the luminescence was measured with ClarioStar reader (BMG) and the EC50s were calculated by Prism. Murine SDHB-WT/KO, HRAS transformed isogenic pair (FIG. 12A); UOK269, Human Tumor-derived SDHB-deficient RCC in their WT counterpart with re-expression of SDHB (FIG. 12B); and ACHN, RCC cells, and their SDHB-KO (SDHB CRISPRed out) isogenic cells (FIG. 12C).

Assay [2] deals with SDH-WT cells. Described as above. The assay is classed as cell-based, murine. The conditions noted are these: Mus musculus, 72 h, toxicity, SDH-WT cells, 3 days, CellTiter-Glo; read-out: EC50 (uM) SDH-WT. Here is the method: as §1, §2, §3, §4, §5, §6, §7, §8

With `COc1ccc(CCN(C)c2ncnc3c2sc2nc4c(cc23)COC(C)(C)C4)cc1F` [Compound 100], the EC50 in assay [1] is 3 to 10 µM; in assay [2], over 10 µM.
The corresponding values for `CCOC1CCc2nc3sc4c(NCCc5ccc(OC)c(F)c5)ncnc4c3cc2C1` (stereo not drawn) [Compound 101] are over 10 µM and over 10 µM.
Regarding `COc1cc(CCNc2ncnc3c2sc2nc4c(cc23)COC(C)(C)C4)cc(OC)c1` [Compound 102], the EC50 is 3 to 10 µM in assay [1] and over 10 µM in assay [2].
In the case of `COc1cccc(CCNc2ncnc3c2sc2nc4c(cc23)COC(C)(C)C4)c1OC` [Compound 103], the concentration for a half-maximal effect (EC50) in assay [1] and in assay [2] was over 10 µM throughout.
Turning to `COc1ccc(CCNc2ncnc3c2sc2nc(C=C(C)C)c(CCl)cc23)cc1F` [Compound 104], the concentration giving a half-maximal response (EC50) in assay [1] lay in the range of 1 to 3 µM; in assay [2], 3 to 10 µM.
The corresponding values for `COc1ccc(C2CCN(c3ncnc4c3sc3nc5c(cc34)COC(C)(C)C5)C2)cc1F` (stereo not drawn) [Compound 105] are 3 to 10 µM and 3 to 10 µM.
The like results for `COc1ccc(CCNc2ncnc3c2sc2nc4c(cc23)CN(C)CC4)cc1F` [Compound 106, N-(3-Fluoro-4-methoxyphenethyl)-9-methyl-7,8,9,10-tetrahydropyrimido[4′,5′:4,5]-thieno[2,3-b][1,6]naphthyridin-4-amine] were, in that order, 3 to 10 µM and 3 to 10 µM.
The corresponding values for `COc1ccc(CCNc2ncnc3c2sc2nc4c(cc23)CCC4)cc1F` [Compound 108, N-(3-Fluoro-4-methoxyphenethyl)-8,9-dihydro-7H-cyclopenta[5′,6′]pyrido-[3′,2′:4,5]thieno[3,2-d]pyrimidin-4-amine] are over 10 µM and 1 to 3 µM.
For `COc1ccc(CCNc2ncnc3c2sc2nc4c(cc23)CCCC4)cc1F` [Compound 109, N-(3-Fluoro-4-methoxyphenethyl)-7,8,9,10-tetrahydropyrimido[4′,5′:4,5]-thieno[2,3-b]quinolin-4-amine], the EC50 in assay [1] and in assay [2] was over 10 µM each time.
Take `COc1ccc(CCNc2ncnc3c2sc2ncccc23)cc1F` [Compound 110]: the results for the 50% effective concentration (EC50) in assay [1] and in assay [2] were 1 to 3 µM and over 10 µM, respectively.
For the compound `CC1(C)Cc2nc3sc4c(NCCC5CCCCO5)ncnc4c3cc2CO1` (stereo not drawn) [Compound 112], the half-maximal effective concentration (EC50) in assay [1] is 3 to 10 µM; in assay [2], over 10 µM.
The corresponding values for `CC1(C)Cc2nc3sc4c(NCCc5cccc(C(=O)O)c5)ncnc4c3cc2CO1` [Compound 113] are 3 to 10 µM and under 1 µM.
The corresponding values for `CCCOc1ccc(CCNc2ncnc3c2sc2nc4c(cc23)COC(C)(C)C4)cc1OC` [Compound 115] are 3 to 10 µM and 1 to 3 µM.
The corresponding values for `CC1(C)Cc2nc3sc4c(NCCc5ccc6[nH]ccc6c5)ncnc4c3cc2CO1` [Compound 116] are 1 to 3 µM and 3 to 10 µM.
Regarding `COc1cccc(CCNc2ncnc3c2sc2nc4c(cc23)COC(C)(C)C4)c1` [Compound 117], the EC50 is 3 to 10 µM in assay [1] and over 10 µM in assay [2].
Turning to `CC1(C)Cc2nc3sc4c(NCCc5ccc(F)c(F)c5)ncnc4c3cc2CO1` [Compound 120], the concentration for a half-maximal effect (EC50) in assay [1] and in assay [2] was over 10 µM each time.
Take `COc1cc(CCNc2ncnc3c2sc2nc4c(cc23)COC(C)(C)C4)ccc1F` [Compound 121]: the concentration for a half-maximal effect (EC50) is 3 to 10 µM in assay [1] and over 10 µM in assay [2].
Turning to `COc1ccc(CCNc2ncnc3c2sc2nc4c(cc23)COC(C)(C)C4)cc1F` [Compound 122], the EC50 in assay [1] was under 1 µM; in assay [2] it was over 10 µM.
The corresponding values for `CC1(C)Cc2nc3sc4c(NCCc5cncnc5)ncnc4c3cc2CO1` [Compound 123] are over 10 µM and over 10 µM.
The like results for `CC1(C)Cc2nc3sc4c(NCCc5cccnc5)ncnc4c3cc2CO1` [Compound 124] were, in that order, over 10 µM and over 10 µM.
For `COc1ccc(CCNc2ncnc3c4c(sc23)=NC2CC(C)(C)OCC2C=4)c(OC)c1` (stereo not drawn) [Compound 125], the values for the concentration for a half-maximal effect (EC50) in assay [1] and in assay [2] were 1 to 3 µM and over 10 µM, respectively.

One may read the EC50 as the concentration that produces a half-maximal response.

These data come from patent US20230084927A1, “GLUCOSE UPTAKE INHIBITORS AND USES THEREOF” (METABOMED LTD., priority 2019, published 2023).
